The target of this assay is T1, human IRAK-4 (Homo sapiens, UniProt Q9NWZ3).
T1 construct: purchased Carna Biosciences 09 145
T1 sequence (Q9NWZ3 1-460): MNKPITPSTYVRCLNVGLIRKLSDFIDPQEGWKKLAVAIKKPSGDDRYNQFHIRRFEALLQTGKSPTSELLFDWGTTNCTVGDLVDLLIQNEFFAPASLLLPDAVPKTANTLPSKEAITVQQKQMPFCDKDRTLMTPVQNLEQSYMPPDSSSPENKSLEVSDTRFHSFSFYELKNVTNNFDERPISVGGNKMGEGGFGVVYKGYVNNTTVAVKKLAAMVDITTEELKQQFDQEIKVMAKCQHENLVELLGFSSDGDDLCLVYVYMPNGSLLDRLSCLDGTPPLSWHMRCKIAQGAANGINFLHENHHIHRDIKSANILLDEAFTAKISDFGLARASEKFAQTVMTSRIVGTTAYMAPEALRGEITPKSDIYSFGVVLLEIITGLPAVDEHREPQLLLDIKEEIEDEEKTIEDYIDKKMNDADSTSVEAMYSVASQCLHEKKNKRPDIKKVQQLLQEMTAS
Description: Phosphorylation IC50 determination for human IRAK-4 (ADP-Glo Kinase Assay). The following applies: human IRAK-4, substrate RIP140, Km ATP; read-out: IRAK4 ADPglo biochemical assay IC50. The method, then:
The phosphorylation of the substrate RIP140 (SEQ ID1) by IRAK4 at Km ATP was detected with the ADP-Glo Kinase Assay (Promega, Cat #V9103), a luminescent kinase assay which measures the ADP formed from a kinase reaction. (Zegzouti et al. 2009) In a second step the kinase reaction was terminated and all the remaining ATP was depleted. In a final step the ADP was converted into ATP and this newly synthesized ATP was measured by using a luciferase/luciferin reaction with a luminescent reader. The luminescent signal positively correlated with kinase activity, in particular kinase inhibition giving a decrease of the luminescent signal.
For the semi-automated assay, the positive control (100% inhibition) was prepared by diluting 10 mM staurosporine stock mixture (20 μL) in water (3.8 mL) and DMSO (180 μL), thus resulting in a […] staurosporine solution at 1% DMSO (final concentration after further dilution in the kinase reaction).
For the automated assay, no pre-dilution of the 10 mM staurosporine stock was made. 10 mM staurosporine was spotted directly in the assay plate using acoustic dispensing and complemented with DMSO to result in a similar final concentration as mentioned above.
For the semi-automated assay, the negative control (0% inhibition) was prepared by mixing water (3.8 mL) and DMSO (200 μL) resulting in a final concentration of 1% DMSO after further dilution in the kinase reaction. For the automated assay no pre-dilution of DMSO was done. 100% DMSO was spotted directly on the assay plate.
The assay buffer solution was prepared at a concentration corresponding to 5 fold the final (most diluted) assay concentration by mixing a solution of 125 mM TRIS pH 7.5+0.05% Triton X-100+2.5 mM EGTA (5.27 mL) with 1M mgCl2 (72 μL), 1M DTT (57.6 μL), and 200 mM MnCl2 (360 μL).
For example, for the semi-automated method, the enzyme-substrate mixture was prepared by mixing water (3999 μL), assay buffer solution (1380 μL), 1 mM RIP140 (138 μL—SEQ ID1), and 200 ng/mL IRAK 4 (3.45 μL Carna Biosciences, 09 145).
For semi-automated method, the ATP mixture was prepared at a concentration corresponding to 2.5 fold the final (most diluted) assay concentration of the semi-automated method and 1.5 fold the final (most diluted) assay concentration of the automated method. For example, for the semi-automated method, the ATP mixture was prepared by mixing water (4126 μL), assay buffer solution (1380 μL), and 10 mM ATP (13.80 μL).
The assay are performed either in a semi-automated or fully automated manner. The assay volume and the incubation time of the ADP detection were different accordingly the method used.
The compounds were prepared as a serial dilution of 10 point dose responses with 1/5 dilution steps in 100% DMSO starting from 2 mM highest concentration, diluted 1/20 in water. 1 μL was transferred dry to the assay plates.
On each assay plate 32 wells of each control (positive & negative) were added, followed by 2 μL enzyme-substrate mixture.
The reaction was started by adding 2 μL diluted ATP (final concentration Km ATP) on the assay plates. Plates were centrifuged for a few seconds at 1000 rpm followed by an incubation at r.t. for 120 min.
The reactions were stopped and the unconsumed ATP was depleted by adding 5 μL ADP-glo Reagent (Promega, Cat #V9103) to the reaction. The plates were quickly centrifuged at 1000 rpm and incubated at r.t. for 40 min corresponding to full ATP depletion.
The ADP was converted back to ATP and luciferase and luciferin were introduced to detect ATP by adding 10 μL kinase detection reagent (Promega, Cat #V9103) to the reaction. The plates were centrifuged for a few seconds at 1000 rpm and incubated at r.t. for a further 30 min.
Luminescent read out was performed on an Envision luminescent reader (Perkin Elmer).
For the automated assay, the compounds were prepared as a serial dilution of 10 point dose responses with 1/5 dilution steps in 100% DMSO starting from 2 mM highest concentration. […]
A general note: ADP-Glo turns the ADP formed in a reaction into a luminescent signal.
A word on the IC50: it is the concentration that inhibits the measured activity by half. For the molecule `COc1cc2nc(C3COCCO3)cn2cc1NC(=O)c1cccn(C2CC2)c1=O` (racemic) [Compound 1, 1-cyclopropyl-N-[2-(1,4-dioxan-2-yl)-7-methoxy-imidazo[1,2-a]pyridin-6-yl]-2-oxo-pyridine-3-carboxamide], the IC50 was 5 to 10 nM.

With `COc1cc2nc(C3COCCO3)cn2cc1NC(=O)c1cccn(C2CC2)c1=O` (single isomer, unassigned) [Compound 7, 1-cyclopropyl-N-[2-(1,4-dioxan-2-yl)-7-methoxy-imidazo[1,2-a]pyridin-6-yl]-2-oxo-pyridine-3-carboxamide], the 50% inhibitory concentration (IC50) was 5 to 10 nM.

In the case of `COc1cc2nc(C3COCCO3)cn2cc1NC(=O)c1cccn(C2CC2)c1=O` (single isomer, unassigned) [Compound 8, 1-cyclopropyl-N-[2-(1,4-dioxan-2-yl)-7-methoxy-imidazo[1,2-a]pyridin-6-yl]-2-oxo-pyridine-3-carboxamide], the IC50 was 5 to 10 nM.

As for `COc1cc2nc(C3CCOCC3)cn2cc1NC(=O)c1cccc(C(F)(F)F)n1` [Compound 2, N-(7-methoxy-2-tetrahydropyran-4-yl-imidazo[1,2-a]pyridin-6-yl)-6-(trifluoromethyl)pyridine-2-carboxamide], the IC50 lay in the range of 10 to 50 nM.

For the molecule `COc1cc2nc(C3CCOCC3)cn2cc1NC(=O)c1cccn(C2CC2)c1=O` [Compound 3, (1-cyclopropyl-N-[7-methoxy-2-(oxan-4-yl)imidazo[1,2-a]pyridin-6-yl]-2-oxopyridine-3-carboxamide)], the IC50 was 5 to 10 nM.

As for `COc1cc2nc(C3COCCO3)cn2cc1NC(=O)c1cccn(C2CCC2)c1=O` (stereo not shown) [Compound 5, 1-cyclobutyl-N-[2-(1,4-dioxan-2-yl)-7-methoxy-imidazo[1,2-a]pyridin-6-yl]-2-oxo-pyridine-3-carboxamide], the IC50 fell in the range of 10 to 50 nM.

On to `NC(=O)c1cc2nc(C3COCCO3)cn2cc1NC(=O)c1cccc(C(F)(F)F)n1` (stereo not shown) [Compound 6, 2-(1,4-dioxan-2-yl)-6-[[6-(trifluoromethyl)pyridine-2-carbonyl]amino]imidazo[1,2-a]pyridine-7-carboxamide], for which the IC50 is 5 to 10 nM.

`CNC(=O)c1cc2nc(C3COCCO3)cn2cc1NC(=O)c1cccc(C(F)(F)F)n1` (stereo not shown) [Compound 9, 2-(1,4-dioxan-2-yl)-N-methyl-6-(6-(trifluoromethyl)picolinamido)imidazo[1,2-a]pyridine-7-carboxamide]: the half-inhibitory concentration (IC50) is 5 to 10 nM.

For the molecule `CC(F)(F)c1cccc(C(=O)Nc2cn3cc(C4COCCO4)nc3cc2C(N)=O)n1` (stereo not shown) [Compound 11, 6-(6-(1,1-difluoroethyl)picolinamido)-2-(1,4-dioxan-2-yl)imidazo[1,2-a]pyridine-7-carboxamide], the IC50 was in the range of 5 to 10 nM.

With `COc1cc2nc(C3CCS(=O)(=O)CC3)cn2cc1NC(=O)c1cccn(C2CC2)c1=O` [Compound 23, 1-cyclopropyl-N-(2-(1,1-dioxidotetrahydro-2H-thiopyran-4-yl)-7-methoxyimidazo[1,2-a]pyridin-6-yl)-2-oxo-1,2-dihydropyridine-3-carboxamide], the IC50 was 0.1 to 5 nM.

Source of the values: patent US20220296573A1, “NOVEL COMPOUNDS AND PHARMACEUTICAL COMPOSITIONS THEREOF FOR THE TREATMENT OF INFLAMMATORY DISORDERS” (Galapagos NV, priority 2019, published 2022).
